Tests used:
[1] = human, in vivo
Protocol: Intracellular concentrations were normalised to tissue protein concentrations. dFdCTP=2′,2′-difluoro-2′-deoxycytidine; PBMCs=Peripheral Blood Mononuclear Cells.
6 ml of blood was collected using heparinised blood collection tubes. After centrifugation and separation of plasma, buffycoat was collected and transferred to new test tube containing 3 ml of Lymphoprep density gradient. After centrifugation, the upper interface containing the PBMC layer was transferred to new test tube. After washing with phosphate buffered saline (PBS), PBMCs were re-suspended in 100 μl PBS. Then, another 100 μl of 0.8 M PCA was added and the mixture was vortex mixed and centrifuged followed by transfer of 100 μl supernatant to new test tube. The PCA extracts were stored at −80° C. until time of analysis.
PCA extracts were buffered using 50 μl of 1M NH4Ac, then neutralised using 20 μl of 10% ammonia solution. Finally, 5 μl containing the internal standard 8-ChloroATP and 5 μl deionised water were then added. The extracts were transferred to LC-MS vials and 10 μl were injected into the UPLC-MS/MS system.
10 mg/mL stock solution of the analyte was prepared and aliquot frozen at −80° C. until use. The analyte was resolved using an ultra-performance liquid chromatography system (Accela UPLC, Thermo Scientific, UK) equipped with a Biobasic AX, 5 μm, 50×2.1 mm column (Thermo Electron Corporation, Murrieta, Calif., USA) and a mobile phase consisting of a mixture of 10 mM NH4Ac in ACN/H2O (30:70 v/v), pH 6.0 (A), and 1 mM NH4Ac in ACN/H2O (30:70 v/v), pH 10.5 (B). The mobile phase gradient was employed, comprising: buffer A=95% at 0-0.5 min, from 95 to 0% over 1.25 minutes, held at 0% for 1.75 minute, from 0 to 95% over 0.1 minutes, ending with 95% for 2.9 minutes, all at a flow rate of 500 μl/min.
Eluting compounds of interest were detected using a triple stage quadrupole Vantage mass spectrometry system (Thermo Scientific, UK) equipped with an electrospray ion source. Samples were analyzed in the Multiple Reaction Monitoring (MRM), positive (+ve) and negative (−ve) ion modes at a spray voltage of 3500 and 3000 V, respectively. Nitrogen was used as sheath and auxiliary gases at a flow rate of 50 and 20 arbitrary units, respectively. Argon was used as collision gas with pressure of 1.5 mTorr.
The combination regimen NUC-1031 with carboplatin was administered to 10 patients with ovarian cancer as part of the Phase Ib study PRO-002.

[2] = system: platinum sensitive recurrent ovarian cancer; settings: cited from earlier work

Row | SMILES | Apparent t1/2 (intracellular dFdCTP) ([1]; female) | Clearance ([1]; female) | Tmax (intracellular dFdCTP) ([1]; female) | Cmax intracellular dFdCTP levels relative to gemcitabine in combination with carboplatin [1] | intracellular dFdCTP Cmax concentrations relative to gemcitabine [1] | levels of the toxic metabolite normally associated with gemcitabine [1] | response rate ([2]; P=0.0016) | median PFS ([2]; median follow-up 17 months, carboplatin AUC5 alone or AUC4 day 1 plus gemcitabine 1000 mg/m^2 days 1 & 8 every 3 weeks)
1 | C[C@H](NP(=O)(OC[C@H]1O[C@@H](n2ccc(N)nc2=O)C(F)(F)[C@@H]1O)Oc1ccccc1)C(=O)OCc1ccccc1 (stereo partly drawn) [NUC-1031, 2′-Deoxy-2′,2′-difluoro-D-cytidine-5′-O-[phenyl (benzoxy-L-alaninyl)] phosphate] | 9.6 h | 3.9 L/h | 1 h | 4 fold | around 10 × | less than half |  | 
2 | N.N.O=C([O-])C1(C(=O)[O-])CCC1.[Pt+2] [carboplatin] |  |  |  |  |  |  | 30.9% | 5.8 months

— patent publication US10660912B2, “Combination therapy for cancer” (NuCana plc, priority 2015, dated 2020)
